What follows are compounds tested against T1, Seed linoleate 13S-lipoxygenase-1 (Glycine max, UniProt P08170) (assay: Inhibition Assay). Conditions: pH 8; 25 °C.
T1 sequence (P08170 whole entry): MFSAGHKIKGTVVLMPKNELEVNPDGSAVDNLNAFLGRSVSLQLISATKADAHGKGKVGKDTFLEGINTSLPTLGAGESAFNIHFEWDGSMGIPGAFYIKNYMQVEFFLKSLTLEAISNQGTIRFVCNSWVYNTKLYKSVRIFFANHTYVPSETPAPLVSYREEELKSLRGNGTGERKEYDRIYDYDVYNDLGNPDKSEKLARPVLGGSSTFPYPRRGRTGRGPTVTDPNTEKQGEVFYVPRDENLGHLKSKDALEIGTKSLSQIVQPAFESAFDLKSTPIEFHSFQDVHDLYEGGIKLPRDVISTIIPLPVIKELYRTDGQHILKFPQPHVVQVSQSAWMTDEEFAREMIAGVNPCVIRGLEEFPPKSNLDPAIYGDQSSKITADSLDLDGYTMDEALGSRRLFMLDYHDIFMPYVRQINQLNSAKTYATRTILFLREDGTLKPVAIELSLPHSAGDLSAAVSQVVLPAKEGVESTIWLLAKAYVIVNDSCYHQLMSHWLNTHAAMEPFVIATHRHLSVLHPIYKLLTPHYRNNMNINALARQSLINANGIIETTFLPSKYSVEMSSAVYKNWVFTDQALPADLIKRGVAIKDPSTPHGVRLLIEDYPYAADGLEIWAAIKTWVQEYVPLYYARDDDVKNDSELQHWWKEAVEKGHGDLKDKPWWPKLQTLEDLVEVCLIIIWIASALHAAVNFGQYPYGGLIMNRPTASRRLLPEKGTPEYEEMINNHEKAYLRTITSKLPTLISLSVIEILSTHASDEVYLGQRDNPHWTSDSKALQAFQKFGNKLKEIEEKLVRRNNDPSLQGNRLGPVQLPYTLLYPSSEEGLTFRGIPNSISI
Protocol: Lipoxygenase inhibiting activity was measured by slightly modifying the spectrometric method. Lipoxygenase type I-B and linoleic acid were purchased from Sigma.

Compound | IC50 [µM]
COc1ccc(/C=C/C(=O)OC2C(O)C(C)OC(O[C@H]3C4C=CO[C@@H](OC5OC(CO)C(O)C(O)C5O)C4[C@@]4(CO)O[C@@H]34)C2OC(C)=O)cc1 (some centres not stated) [Buddlejoside A5, 7] | 40.4
COc1ccc(/C=C/C(=O)OC2C(C)OC(O[C@@H]3C=C(CO)C4C3C=CO[C@H]4OC3OC(CO)C(O)C(O)C3O)C(OC(C)=O)C2O)cc1 (some centres not stated) [Buddlejoside A2, 6] | 41.9
CC(C)CC(=O)OCC1=C[C@@H](O)[C@@H]2C=CC[C@H](OC3OC(CO)C(O)C(O)C3O)[C@H]12 (some centres not stated) [Buddlejoside C, 3] | 52.5
COC(=O)[C@@H]1C2C=C[C@@]3(O)CO[C@@H](O[C@@H]1O)C23 (stereo partly drawn) [Beta-gardiol, 5] | 47.3
O=C(OCC1=C[C@@H](O)[C@@H]2C=CO[C@@H](OC3OC(CO)C(O)C(O)C3O)[C@H]12)c1ccc(O)cc1 (some centres not stated) [Buddlejoside A, 1] | 44.3
O=C(OCC1=C[C@@H](O)[C@@H]2C=CO[C@@H](OC3OC(CO)C(O)C(O)C3O)[C@H]12)c1ccc(O)c(O)c1 (some centres not stated) [Buddlejoside B, 2] | 39.7
COC(=O)C1=CO[C@@H](O)C2C(CO)C=CC12 (some centres not stated) [Genipin, 4] | 49.6

Source: BindingDB's records for doi:10.1080/14756360701342532 (Chinese Academy of Medical Sciences, 2008)
